Assay results published in the NIST ThermoML archive (doi:10.1021/je800049b).
± gives the expanded uncertainty stated by the source.

What was measured:
[1] = Molar enthalpy of transition or fusion; details: Crystal; DSC
[2] = Crystal; DTA

Molar enthalpy of transition or fusion [1]: 5.24 ± 0.155 kcal/mol
Normal melting temperature [2]: 192.97 ± 0.5 °C
SMILES: O=P(O)(c1ccccc1)c1ccccc1 [diphenylphosphinic acid]
